Reference: PubChem BioAssay (NCI)
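Each compound was tested at five concentrations against cells in 96-well plates for 48 hours. Abbreviation: GI50, concentration required for 50% inhibition of growth. TGI denotes the concentration required for complete inhibition of growth.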

How the values were obtained:
Assay in all cases: NCI anticancer screen, dose series, 48 h
[1] = test system: SF-268 CNS
[2] = test system: A549 NSCLC
[3] = test system: SK-OV-3 ovarian
[4] = test system: MOLT-4 leukemia
[5] = test system: OVCAR-4 ovarian
[6] = test system: CCRF-CEM leukemia
[7] = test system: PC-3 prostate
[8] = test system: SK-MEL-5 melanoma
[9] = test system: MDA-MB-435
[10] = test system: HS 578T breast
[11] = test system: CAKI-1 renal
[12] = test system: BT-549 breast
[13] = test system: UO-31 renal
[14] = test system: SNB-19 CNS
[15] = test system: HOP-62 NSCLC
[16] = test system: NCI-H522 lung
[17] = test system: HCC-2998 colon
[18] = test system: M14 melanoma
[19] = test system: UACC-62 melanoma
[20] = test system: NCI/ADR-RES ovarian
[21] = test system: U251 CNS
[22] = test system: 786-0 renal
[23] = test system: HL-60(TB) leukemia
[24] = test system: EKVX NSCLC
[25] = test system: NCI-H23 lung
[26] = test system: TK-10 renal
[27] = test system: SN12C renal
[28] = test system: RXF 393 renal
[29] = test system: SF-539 CNS
[30] = test system: MDA-MB-231 breast
[31] = test system: MALME-3M melanoma
[32] = test system: DU-145 prostate
[33] = test system: HCT-15 colon
[34] = test system: COLO 205 colon
[35] = test system: OVCAR-5 ovarian
[36] = test system: SNB-75 CNS
[37] = test system: RPMI-8226 leukemia
[38] = test system: UACC-257 melanoma
[39] = test system: A498 renal
[40] = test system: ACHN renal
[41] = test system: OVCAR-8 ovarian
[42] = test system: IGROV1 ovarian
[43] = test system: K-562 leukemia
[44] = test system: NCI-H226 lung
[45] = test system: SK-MEL-2 melanoma
[46] = test system: LOX IMVI melanoma
[47] = test system: NCI-H460 lung
[48] = test system: SF-295 CNS
[49] = test system: HOP-92 NSCLC
[50] = test system: SK-MEL-28 melanoma
[51] = test system: SW-620 colon
[52] = test system: OVCAR-3 ovarian
[53] = test system: MCF7 breast
[54] = test system: HT29 colon
[55] = test system: T-47D breast
[56] = test system: SR leukemia
[57] = test system: KM12 colon
[58] = test system: HCT-116 colon

CCOC(=O)c1sc(Nc2ccc(Cl)cc2)nc1C
GI50 [1]: 1.72 µM
TGI [1]: 3.7 µM
GI50 [2]: 2.17 µM
TGI [2]: 5.45 µM
GI50 [3]: 2.44 µM
TGI [3]: 6.8 µM
GI50 [4]: 1.79 µM
TGI [4]: 6.92 µM
GI50 [5]: 2.04 µM
TGI [5]: 19 µM
GI50 [6]: 2.64 µM
TGI [6]: 9.37 µM
GI50 [7]: 1.37 µM
TGI [7]: 3.42 µM
GI50 [8]: 1.44 µM
TGI [8]: 2.76 µM
GI50 [9]: 2.12 µM
TGI [9]: 4.75 µM
GI50 [10]: 2.22 µM
TGI [10]: 6.2 µM
GI50 [11]: 2.09 µM
TGI [11]: 6.51 µM
GI50 [12]: 1.48 µM
TGI [12]: 3.29 µM
GI50 [13]: 1.15 µM
TGI [13]: 2.5 µM
GI50 [14]: 2.08 µM
TGI [14]: 6.25 µM
GI50 [15]: 1.89 µM
TGI [15]: 5.06 µM
GI50 [16]: 1.18 µM
TGI [16]: 3.57 µM
GI50 [17]: 1.75 µM
TGI [17]: 3.34 µM
GI50 [18]: 1.56 µM
TGI [18]: 3.32 µM
GI50 [19]: 1.17 µM
TGI [19]: 2.71 µM
GI50 [20]: 1.78 µM
TGI [20]: 4.08 µM
GI50 [21]: 1.96 µM
TGI [21]: 4.3 µM
GI50 [22]: 1.55 µM
TGI [22]: 3.14 µM
GI50 [23]: 3.16 µM
TGI [23]: 7.17 µM
GI50 [24]: 0.969 µM
TGI [24]: 5.52 µM
GI50 [25]: 1.5 µM
TGI [25]: 3.56 µM
GI50 [26]: 2.42 µM
TGI [26]: 5.08 µM
GI50 [27]: 1.75 µM
TGI [27]: 4.81 µM
GI50 [28]: 2.11 µM
TGI [28]: 4.75 µM
GI50 [29]: 1.66 µM
TGI [29]: 3.72 µM
GI50 [30]: 1.08 µM
TGI [30]: 2.61 µM
GI50 [31]: 1.61 µM
TGI [31]: 3.59 µM
GI50 [32]: 2.47 µM
TGI [32]: 9.04 µM
GI50 [33]: 1.62 µM
TGI [33]: 3.92 µM
GI50 [34]: 1.83 µM
TGI [34]: 3.59 µM
GI50 [35]: 2.08 µM
TGI [35]: 6.63 µM
GI50 [36]: 1.43 µM
TGI [36]: 4.24 µM
GI50 [37]: 1.83 µM
TGI [37]: 5.65 µM
GI50 [38]: 2.11 µM
TGI [38]: 4.67 µM
GI50 [39]: 1.79 µM
TGI [39]: 5.44 µM
GI50 [40]: 1.68 µM
TGI [40]: 3.88 µM
GI50 [41]: 2.89 µM
TGI [41]: 7.73 µM
GI50 [42]: 1.52 µM
TGI [42]: 4.26 µM
GI50 [43]: 2.57 µM
TGI [43]: 9.07 µM
GI50 [44]: 1.76 µM
TGI [44]: 4.46 µM
GI50 [45]: 2.1 µM
TGI [45]: 4.2 µM
GI50 [46]: 1.49 µM
TGI [46]: 2.86 µM
GI50 [47]: 2.34 µM
TGI [47]: 6.31 µM
GI50 [48]: 1.69 µM
TGI [48]: 3.57 µM
GI50 [49]: 0.346 µM
TGI [49]: 1.81 µM
GI50 [50]: 1.96 µM
TGI [50]: 4.23 µM
GI50 [51]: 2.6 µM
TGI [51]: 7.54 µM
GI50 [52]: 1.69 µM
TGI [52]: 3.92 µM
GI50 [53]: 1.64 µM
TGI [53]: 6.14 µM
GI50 [54]: 2.05 µM
TGI [54]: 4.09 µM

NCCC(O)(P(=O)(O)O)P(=O)(O)O
GI50 [1]: > 100 µM
TGI [1]: > 100 µM
GI50 [2]: > 100 µM
TGI [2]: > 100 µM
GI50 [3]: > 100 µM
TGI [3]: > 100 µM
GI50 [4]: > 100 µM
TGI [4]: > 100 µM
GI50 [5]: > 100 µM
TGI [5]: > 100 µM
GI50 [6]: > 100 µM
TGI [6]: > 100 µM
GI50 [8]: > 100 µM
TGI [8]: > 100 µM
GI50 [55]: > 100 µM
TGI [55]: > 100 µM
GI50 [9]: > 100 µM
TGI [9]: > 100 µM
GI50 [10]: > 100 µM
TGI [10]: > 100 µM
GI50 [12]: > 100 µM
TGI [12]: > 100 µM
GI50 [13]: > 100 µM
TGI [13]: > 100 µM
GI50 [14]: > 100 µM
TGI [14]: > 100 µM
GI50 [15]: > 100 µM
TGI [15]: > 100 µM
GI50 [16]: > 100 µM
TGI [16]: > 100 µM
GI50 [17]: > 100 µM
TGI [17]: > 100 µM
GI50 [18]: > 100 µM
TGI [18]: > 100 µM
GI50 [19]: 29.1 µM
TGI [19]: > 100 µM
GI50 [20]: > 100 µM
TGI [20]: > 100 µM
GI50 [56]: > 100 µM
TGI [56]: > 100 µM
GI50 [21]: > 100 µM
TGI [21]: > 100 µM
GI50 [22]: > 100 µM
TGI [22]: > 100 µM
GI50 [23]: > 100 µM
TGI [23]: > 100 µM
GI50 [24]: > 100 µM
TGI [24]: > 100 µM
GI50 [25]: > 100 µM
TGI [25]: > 100 µM
GI50 [26]: > 100 µM
TGI [26]: > 100 µM
GI50 [27]: > 100 µM
TGI [27]: > 100 µM
GI50 [57]: > 100 µM
TGI [57]: > 100 µM
GI50 [29]: > 100 µM
TGI [29]: > 100 µM
GI50 [30]: > 100 µM
TGI [30]: > 100 µM
GI50 [31]: > 100 µM
TGI [31]: > 100 µM
GI50 [32]: > 100 µM
TGI [32]: > 100 µM
GI50 [33]: > 100 µM
TGI [33]: > 100 µM
GI50 [34]: > 100 µM
TGI [34]: > 100 µM
GI50 [35]: > 100 µM
TGI [35]: > 100 µM
GI50 [36]: > 100 µM
TGI [36]: > 100 µM
GI50 [37]: > 100 µM
TGI [37]: > 100 µM
GI50 [38]: > 100 µM
TGI [38]: > 100 µM
GI50 [39]: > 100 µM
TGI [39]: > 100 µM
GI50 [40]: 36 µM
TGI [40]: > 100 µM
GI50 [41]: 3.47 µM
TGI [41]: 35.6 µM
GI50 [42]: > 100 µM
TGI [42]: > 100 µM
GI50 [43]: > 100 µM
TGI [43]: > 100 µM
GI50 [44]: 14.1 µM
TGI [44]: 36.5 µM
GI50 [45]: 4.43 µM
TGI [45]: 43.8 µM
GI50 [46]: > 100 µM
TGI [46]: > 100 µM
GI50 [47]: > 100 µM
TGI [47]: > 100 µM
GI50 [58]: > 100 µM
TGI [58]: > 100 µM
GI50 [49]: > 100 µM
TGI [49]: > 100 µM
GI50 [50]: > 100 µM
TGI [50]: > 100 µM
GI50 [51]: > 100 µM
TGI [51]: > 100 µM
GI50 [52]: > 100 µM
TGI [52]: > 100 µM
GI50 [53]: 37 µM
TGI [53]: > 100 µM
GI50 [54]: > 100 µM
TGI [54]: > 100 µM
